IC50 data for 31 compounds are collected here from US10253015B2, “Pyridinyl quinolinone derivatives as mutant-isocitrate dehydrogenase inhibitors” (FORMA TM2, Inc., priority 2014, dated 2019).

For test [1], the target named is IDH1-R132C recombinant protein (Homo sapiens (Human), UniProt O75874, R132C). Put plainly: IDH1-R132C enzymatic assay. Particulars: inhibition of NADPH consumption, diaphorase/resazurin readout; read-out: Enzyme IDH1 R132C Range IC50. Type of test: biochemical. Here is the method:
(§1) Assays were performed in a 384-well black plate. […] After the plate was centrifuged briefly, an aliquot of 10 μL of 2 mM α-ketoglutarate and 20 μM NADPH solution prepared in assay buffer was then added to each well and the reaction was maintained at 25° C. for 45 minutes. An aliquot of 10 μL of diaphorase solution (0.15 U/mL diaphorase and 30 μM Resazurin in assay buffer) was added to each well. […] The IC50 of a given compound was calculated by fitting the dose response curve of inhibition of NADPH consumption at a given concentration with the four parameter logistic equation.

Test [2] concerns the target IDH1-R132H recombinant protein (Homo sapiens (Human), UniProt O75874, R132H). Put plainly: IDH1-R132H enzymatic assay. Format: biochemical. Particulars: inhibition of NADPH consumption, diaphorase/resazurin readout; read-out: Enzyme IDH1 R132H Range IC50. Here is the method:
as §1

Chain of IDH1-R132H recombinant protein (O75874 whole entry R132H): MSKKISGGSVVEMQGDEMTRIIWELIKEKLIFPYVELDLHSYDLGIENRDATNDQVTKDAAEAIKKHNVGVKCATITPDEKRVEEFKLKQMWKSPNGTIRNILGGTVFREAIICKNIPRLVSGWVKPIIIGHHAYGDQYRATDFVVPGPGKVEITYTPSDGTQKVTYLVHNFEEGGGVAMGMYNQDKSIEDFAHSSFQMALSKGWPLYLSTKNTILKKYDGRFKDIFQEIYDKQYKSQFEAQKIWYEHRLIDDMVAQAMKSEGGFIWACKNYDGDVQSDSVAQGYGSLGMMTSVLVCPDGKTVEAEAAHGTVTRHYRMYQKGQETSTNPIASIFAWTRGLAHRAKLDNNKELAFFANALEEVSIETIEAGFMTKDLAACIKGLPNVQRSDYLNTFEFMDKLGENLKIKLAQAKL
Chain of IDH1-R132C recombinant protein (O75874 whole entry R132C): as the sequence (O75874 whole entry R132H) above, with H132C counted along it

With `C[C@H](Nc1nccc(NCCO)c1F)c1cc2cc(Cl)ccc2[nH]c1=O` [Compound I-36, 6-chloro-3-[(1S)-1-({3-fluoro-4-[(2-hydroxyethyl)amino]pyridin-2-yl}amino)ethyl]-1,2-dihydroquinolin-2-one], the IC50 was more than 10000 nM in test [1] and 1000 to 10000 nM in test [2]. For `C[C@H](Nc1nccc(-c2ccnn2C)c1F)c1cc2cc(Cl)ccc2[nH]c1=O` [Compound I-53, 6-chloro-3-[(1S)-1-{[3-fluoro-4-(1-methyl-1H-pyrazol-5-yl)pyridin-2-yl]amino}ethyl]-1,2-dihydroquinolin-2-one] the same measures were more than 10000 nM and 1000 to 10000 nM.

With `C[C@H](Nc1cc(-c2c[nH]nc2C(F)(F)F)ccn1)c1cc2cc(Cl)ccc2[nH]c1=O` [Compound I-50, 6-chloro-3-[(1S)-1-({4-[3-(trifluoromethyl)-1H-pyrazol-4-yl]pyridin-2-yl}amino)ethyl]-1,2-dihydroquinolin-2-one], the 50% inhibitory concentration (IC50) is more than 10000 nM in test [1] and 1000 to 10000 nM in test [2]. For `CC(C)[C@H]1COC(=O)N1c1cccc(N[C@@H](C)c2cc3cc(Cl)ccc3[nH]c2=O)n1` [Compound I-19, 6-chloro-3-[(1S)-1-({6-[(4S)-2-oxo-4-(propan-2-yl)-1,3-oxazolidin-3-yl]pyridin-2-yl}amino)ethyl]-1,2-dihydroquinolin-2-one] the same measures were 1000 to 10000 nM and 100 to 1000 nM. The corresponding values for `CC(=O)Nc1ccnc(N[C@@H](C)c2cc3cc(Cl)ccc3[nH]c2=O)c1F` [Compound I-34, N-(2-{[(1S)-1-(6-chloro-2-oxo-1,2-dihydroquinolin-3-yl)ethyl]amino}-3-fluoropyridin-4-yl)acetamide] are 100 to 1000 nM and less than 100 nM. The corresponding values for `C[C@H](Nc1cc(-c2ccnn2C)ccn1)c1cc2cc(Cl)ccc2[nH]c1=O` [Compound I-49, 6-chloro-3-[(1S)-1-{[4-(1-methyl-1H-pyrazol-5-yl)pyridin-2-yl]amino}ethyl]-1,2-dihydroquinolin-2-one] are 1000 to 10000 nM and 1000 to 10000 nM.

As to `Cc1nc(NCc2cc3cc(Cl)c(OCCN4CCN(S(C)(=O)=O)CC4)cc3[nH]c2=O)ccc1C#N` [Compound I-85, 6-[({6-chloro-7-[2-(4-methanesulfonylpiperazin-1-yl)ethoxy]-2-oxo-1,2-dihydroquinolin-3-yl}methyl)amino]-2-methylpyridine-3-carbonitrile], the half-maximal inhibitory concentration (IC50) was 100 to 1000 nM in test [1] and less than 100 nM in test [2]. Take `CC(Nc1cc(N2C(=O)OC[C@@H]2C(C)C)ccn1)c1cc2cc(Cl)ccc2[nH]c1=O` (stereo partly drawn) [Compound I-18, 6-chloro-3-[1-({4-[(4S)-2-oxo-4-(propan-2-yl)-1,3-oxazolidin-3-yl]pyridin-2-yl}amino)ethyl]-1,2-dihydroquinolin-2-one]: the IC50 was 1000 to 10000 nM in test [1] and 100 to 1000 nM in test [2]. The corresponding values for `C[C@H](Nc1cc(N2C(=O)OCC2(C)C)ccn1)c1cc2cc(Cl)ccc2[nH]c1=O` [Compound I-13, 6-chloro-3-[(1S)-1-{[4-(4,4-dimethyl-2-oxo-1,3-oxazolidin-3-yl)pyridin-2-yl]amino}ethyl]-1,2-dihydroquinolin-2-one] are 1000 to 10000 nM and 100 to 1000 nM. For `COc1cc(N[C@@H](C)c2cc3cc(Cl)ccc3n(C)c2=O)ncc1C#N` [Compound I-2, 6-{[(1S)-1-(6-chloro-1-methyl-2-oxo-1,2-dihydroquinolin-3-yl)ethyl]amino}-4-methoxypyridine-3-carbonitrile], the half-maximal inhibitory concentration (IC50) in test [1] and in test [2] was 1000 to 10000 nM in each case. As for `N#Cc1ccc(NCc2cc3cc(Cl)ccc3[nH]c2=O)nc1` [Compound I-67, 6-{[(6-chloro-2-oxo-1,2-dihydroquinolin-3-yl)methyl]amino}pyridine-3-carbonitrile], the half-maximal inhibitory concentration (IC50) was more than 10000 nM in test [1] and 100 to 1000 nM in test [2]. The corresponding values for `C[C@H](Nc1cc(-c2ccnn2C2CCCCO2)ccn1)c1cc2cc(Cl)ccc2[nH]c1=O` (stereo partly drawn) [Compound I-47, 6-chloro-3-[(1S)-1-({4-[1-(oxan-2-yl)-1H-pyrazol-5-yl]pyridin-2-yl}amino)ethyl]-1,2-dihydroquinolin-2-one] are 1000 to 10000 nM and 1000 to 10000 nM.

As to `Cc1cc(NCc2cc3cc(Cl)ccc3[nH]c2=O)ncc1C#N` [Compound I-59, 6-{[(6-chloro-2-oxo-1,2-dihydroquinolin-3-yl)methyl]amino}-4-methylpyridine-3-carbonitrile], the half-inhibitory concentration (IC50) in test [1] lay in the range of 1000 to 10000 nM; in test [2] it was 100 to 1000 nM.

With `Cc1cc(-c2ccnc(N[C@@H](C)c3cc4cc(Cl)ccc4[nH]c3=O)c2F)n(C)n1` [Compound I-52, 6-chloro-3-[(1S)-1-{[4-(1,3-dimethyl-1H-pyrazol-5-yl)-3-fluoropyridin-2-yl]amino}ethyl]-1,2-dihydroquinolin-2-one], the IC50 was more than 10000 nM in test [1] and 1000 to 10000 nM in test [2]. For `Cc1cscc1-c1ccnc(N[C@@H](C)c2cc3cc(Cl)ccc3[nH]c2=O)c1` [Compound I-48, 6-chloro-3-[(1S)-1-{[4-(4-methylthiophen-3-yl)pyridin-2-yl]amino}ethyl]-1,2-dihydroquinolin-2-one] the same measures were 1000 to 10000 nM and 1000 to 10000 nM. The corresponding values for `Cc1cc(-c2ccnc(N[C@@H](C)c3cc4cc(Cl)ccc4[nH]c3=O)c2)n(C)n1` [Compound I-39, 6-chloro-3-[(1S)-1-{[4-(1,3-dimethyl-1H-pyrazol-5-yl)pyridin-2-yl]amino}ethyl]-1,2-dihydroquinolin-2-one] are 100 to 1000 nM and 1000 to 10000 nM. Consider `Cc1cc(C)nc(NCc2cc3cc(Cl)ccc3[nH]c2=O)c1` [Compound I-69, 6-chloro-3-{[(4,6-dimethylpyridin-2-yl)amino]methyl}-1,2-dihydroquinolin-2-one], for which the IC50 in test [2] lay within 1000 to 10000 nM. In the case of `O=c1[nH]c2ccc(Cl)cc2cc1CNc1ccc(F)cn1` [Compound I-71, 6-chloro-3-{[(5-fluoropyridin-2-yl)amino]methyl}-1,2-dihydroquinolin-2-one], in test [2], the 50% inhibitory concentration (IC50) lay within 1000 to 10000 nM. `CC(C)Cn1nccc1-c1ccnc(N[C@@H](C)c2cc3cc(Cl)ccc3[nH]c2=O)c1` [Compound I-43, 6-chloro-3-[(1S)-1-({4-[1-(2-methylpropyl)-1H-pyrazol-5-yl]pyridin-2-yl}amino)ethyl]-1,2-dihydroquinolin-2-one]: the IC50 in test [1] and in test [2] was 1000 to 10000 nM in each case. On to `O=c1[nH]c2ccc(Cl)cc2cc1CNc1ccc(Cl)cn1` [Compound I-75, 6-chloro-3-{[(5-chloropyridin-2-yl)amino]methyl}-1,2-dihydroquinolin-2-one], for which the IC50 in test [2] is 1000 to 10000 nM. As to `Cc1noc(C)c1-c1ccnc(N[C@@H](C)c2cc3cc(Cl)ccc3[nH]c2=O)c1F` [Compound I-54, 6-chloro-3-[(1S)-1-{[4-(dimethyl-1,2-oxazol-4-yl)-3-fluoropyridin-2-yl]amino}ethyl]-1,2-dihydroquinolin-2-one], the IC50 in test [2] was more than 10000 nM. On the same count and under the same terms, the result for `COC(=O)c1cccc(NCc2cc3cc(Cl)ccc3[nH]c2=O)n1` [Compound I-73, methyl 6-{[(6-chloro-2-oxo-1,2-dihydroquinolin-3-yl)methyl]amino}pyridine-2-carboxylate] reads 1000 to 10000 nM; that for `Cc1c(N2CCOC2=O)ccnc1N[C@@H](C)c1cc2cc(Cl)ccc2[nH]c1=O` [Compound I-15, 6-chloro-3-[(1S)-1-{[3-methyl-4-(2-oxo-1,3-oxazolidin-3-yl)pyridin-2-yl]amino}ethyl]-1,2-dihydroquinolin-2-one], 100 to 1000 nM. Still for that read-out and setting: the result for `Cc1cc2cc(CNc3ccc(C#N)cn3)c(=O)[nH]c2cc1C` [Compound I-80, 6-{[(6,7-dimethyl-2-oxo-1,2-dihydroquinolin-3-yl)methyl]amino}pyridine-3-carbonitrile] reads 100 to 1000 nM; that for `Cc1cc(N2CCOC2=O)cc(N[C@@H](C)c2cc3cc(Cl)ccc3[nH]c2=O)n1` [Compound I-12, 6-chloro-3-[(1S)-1-{[6-methyl-4-(2-oxo-1,3-oxazolidin-3-yl)pyridin-2-yl]amino}ethyl]-1,2-dihydroquinolin-2-one], 100 to 1000 nM; that for `Cc1ccnc(NCc2cc3cc(Cl)ccc3[nH]c2=O)c1` [Compound I-74, 6-chloro-3-{[(4-methylpyridin-2-yl)amino]methyl}-1,2-dihydroquinolin-2-one], 1000 to 10000 nM. The same measure, in the same setting: the result for `COc1ccc2[nH]c(=O)c(CNc3ccc(C#N)cn3)cc2c1` [Compound I-81, 6-{[(6-methoxy-2-oxo-1,2-dihydroquinolin-3-yl)methyl]amino}pyridine-3-carbonitrile] reads 1000 to 10000 nM; that for `CC(C)CN(C)c1nc(NCc2cc3cc(Cl)ccc3[nH]c2=O)ccc1C#N` [Compound I-65, 6-{[(6-chloro-2-oxo-1,2-dihydroquinolin-3-yl)methyl]amino}-2-[methyl(2-methylpropyl)amino]pyridine-3-carbonitrile], more than 10000 nM. Turning to `N#Cc1ccnc(NCc2cc3cc(Cl)ccc3[nH]c2=O)c1` [Compound I-72, 2-{[(6-chloro-2-oxo-1,2-dihydroquinolin-3-yl)methyl]amino}pyridine-4-carbonitrile], in test [2], the half-inhibitory concentration (IC50) was 1000 to 10000 nM. Same read-out and setting: the result for `N#Cc1ccc(NCc2cc3cc(Cl)ccc3[nH]c2=O)nc1C(F)(F)F` [Compound I-60, 6-{[(6-chloro-2-oxo-1,2-dihydroquinolin-3-yl)methyl]amino}-2-(trifluoromethyl)pyridine-3-carbonitrile] reads 1000 to 10000 nM; that for `C[C@H](Nc1cc(F)cc(N2CCOC2=O)n1)c1cc2cc(Cl)ccc2[nH]c1=O` [Compound I-16, 6-chloro-3-[(1S)-1-{[4-fluoro-6-(2-oxo-1,3-oxazolidin-3-yl)pyridin-2-yl]amino}ethyl]-1,2-dihydroquinolin-2-one], 1000 to 10000 nM.
